Laboratory results published in patent publication US20140220135A1, “PERMEATION ENHANCED ACTIVE-CARRYING NANOPARTICLES” (Midatech Limited, priority 2013, published 2014).
“Also recorded” adds a separate entry of the source.

Legend:
[1] = Glucose clearance in somatostatin-infused minipigs after glucose bolus; format: in vivo; settings: transbuccal strips of NP-insulin, μg DoD/strip, period of 40 to 60 minutes, FIG. 8
Method: Minipigs were infused with somatostatin in order to suppress endogenous insulin secretion. They were then given a bolus injection of 0.33 gm/kg glucose. After thirty minutes the test item was given and the first order rate constant for glucose clearance (k) was calculated for the period of 40 to 60 minutes.
Test items included: 1. Strips containing 4 U insulin on nanoparticle applied transbuccal; 2. Strips containing 4 U insulin on nanoparticle dodecyl-β-D-maltoside applied transbuccal; 3. Subcutaneous (s.c.) nanoparticle-insulin (NP-insulin); 4. S.C. commercial Humalog® insulin.

[2] = test system: insulin-carrying gold nanoparticles ("GNPI"); experiment: Insulin release from insulin-carrying gold nanoparticles incubated with permeation enhancer, BCA protein assay of supernatant; format: physicochemical
Method: […] Samples were mixed and left at RT for 1 h, they were then spun for 2 min at 18000 g and 10 μl of each supernatant was measured by BCA protein assay to determine insulin release, a blank and a positive control in which no TDM was added and the sample was not spun were also included.
The sample tubes were vortexed and left at RT for a further 95 h (for a total of 96 hours) and re-assayed as above to see if there was any further indication of insulin release.
In a follow on experiment lysalbinic acid (LAA) was also tested as an alternative potential permeation enhancer, the same protocol was used as for TDM above.

Row | insulin release by TDM over 0 TDM control ([2]; 1 h at RT in water, 2.5-67.5 μg TDM in 0.5 ml, FIG. 2) | further insulin release after a total of 96 hours ([2]; 96 h at RT in water, FIG. 3) | loss of bound active from active-carrying nanoparticle ([2]; 96 hours of incubation in solution) | percentage of insulin released against percentage of permeation enhancer ([2]; insulin level of 75 U/ml, FIG. 5 and FIG. 6) | effect on insulin release from GNPI (overall conclusion) ([2]; range of concentrations, in water, short or medium term) | SMILES | first order rate constant for glucose clearance (k) against dosage of DoD [1]
1 |  |  |  |  |  | CCCCCCCCCCCCO[C@@H]1O[C@H](CO)[C@@H](O[C@H]2O[C@H](CO)[C@@H](O)[C@H](O)[C@H]2O)[C@H](O)[C@H]1O [DoD, dodecyl-β-D-maltoside] | apparent dose-dependence; also recorded: clear dose-dependence
2 | less than 5% | no further release | without significant loss of bound active | lack of effect | no gross effect | CCCCCCCCCCCCCCO[C@@H]1O[C@H](CO)[C@@H](O[C@H]2O[C@H](CO)[C@@H](O)[C@H](O)[C@H]2O)[C@H](O)[C@H]1O [TDM, tetradecyl-D-maltoside] | 
